Reference: patent US9102754B2, “Immunomodulatory compositions and methods for treating disease with modified host defense peptides” (priority 2007, dated 2015)
Like-named read-outs stand apart in the source and are kept apart here. Non-standard residues stand in square brackets, D forms with d.

Columns and labels:
PhoQ = biological target: T1, PhoQ (Salmonella typhimurium, UniProt P0DM80); assay: PhoPQ reporter assay (PhoN-PhoA fusion); format: cell-based, S. typhimurium strain CS 120; conditions: 5 μg/mL peptide, 5 mM magnesium
T1 construct: S. typhimurium strain CS 120, which expresses a PhoP-regulated fusion between Salmonella acid phosphatase (PhoN) and E. coli alkaline phosphatase (PhoA); endogenous in cells; host or cells: S. typhimurium strain CS 120
T1 sequence (P0DM80 whole entry, the tested form may be a part): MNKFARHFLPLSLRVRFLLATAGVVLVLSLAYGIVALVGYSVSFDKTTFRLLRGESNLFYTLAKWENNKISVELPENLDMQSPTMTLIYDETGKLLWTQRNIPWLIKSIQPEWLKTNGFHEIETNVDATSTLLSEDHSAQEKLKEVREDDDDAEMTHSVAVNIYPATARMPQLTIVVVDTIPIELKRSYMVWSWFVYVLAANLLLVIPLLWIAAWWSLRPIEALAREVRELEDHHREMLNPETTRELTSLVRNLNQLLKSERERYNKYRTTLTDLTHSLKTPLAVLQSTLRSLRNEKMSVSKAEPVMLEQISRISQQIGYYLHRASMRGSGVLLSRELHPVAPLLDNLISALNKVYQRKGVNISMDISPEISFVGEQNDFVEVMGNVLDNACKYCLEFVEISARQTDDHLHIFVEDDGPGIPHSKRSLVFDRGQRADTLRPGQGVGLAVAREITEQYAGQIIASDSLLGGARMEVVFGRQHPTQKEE
Procedure: S. typhimurium strain CS 120, which expresses a PhoP-regulated fusion between Salmonella acid phosphatase (PhoN) and E. coli alkaline phosphatase (PhoA), was utilized for the analysis of PhoPQ activation. The activity of this fusion protein was measured in media containing varying concentrations of the peptides and/or magnesium. For growth under PhoPQ activating conditions the growth media was supplemented with 50 μM MgCl2. Growth under PhoPQ-repressive conditions was performed in the presence of 5 mM MgCl2 as were all of the assays of peptide responses.
The ability of BMAP28 and RI-BMAP28 to initiate activation of a PhoPQ-dependent reporter was examined by incubation of bacterium in the presence of sub-lethal (5 μg/mL) concentrations of indicated peptide as well as 5 mM magnesium. Values reported represent the averages of three replicates. Activation and repression of PhoPQ by low (50 μM) and high (5 mM) magnesium respectively is also reported.
S. typhimurium strain CS 120, which expresses a PhoP-regulated fusion between Salmonella acid phosphatase (PhoN) and E. coli alkaline phosphatase (PhoA) was utilized for analysis of PhoPQ activation. The activity of this fusion protein was measured in salt-free LB media containing varying concentrations of the peptides and/or magnesium. For growth under PhoPQ activating conditions the growth media was supplemented with 50 μM MgCl2. […]

[1] = tested on: LPS-induced expression of BIRC3, CCL20, IL-8 and IL-10 in bovine monocytes; assay: HDP inhibition of LPS-induced gene expression (qRT-PCR); format: cell-based; conditions: 100 ng/ml LPS; for reduction of LPS-induced CCL20 expression / reduction of LPS-induced IL-8 expression / reduction of LPS-induced IL-10 expression: 0.5 μg/mL peptide; for suppression of the induction of LPS-induced genes: 5 μg/mL peptide, 4 hours
Excerpt: The induction of inflammation responses by lipopolysaccharide (LPS) has clinical significance as a mechanism of sepsis and also serves as a biomarker for the ability of HDPs to mediate anti-endotoxic function. Our investigation focuses on patterns of expression of genes (BIRC3, CCL20, IL-8 and IL-10) identified through microarray analysis to show the most significant levels of differential expression in response to LPS-stimulation in monocytes, Mookherjee et al., J. Leokocyte. Biol. 80:1-12, 2006; Mookherjee et al., J. Immunol. 176: 2455-2464, 2006. […] Biol. 80:1-12, 2006; Mookherjee et al., J. Immunol. 176: 2455-2464, 2006.
The data presented represents the average of experiments performed in triplicate for a single animal. While all three animals, each tested in triplicate, gave the same trend of responses, the magnitude of these responses is unique for each animal. This is typical of the animal-to-animal variation in the magnitude of LPS-induced responses that has been observed by our group.
Monocytes were purified from isolated PBMCs by MACS® purification using CD14 microbeads (Miltenyi Biotec Inc., Auburn, Calif.). Monocytes were then plated at 5×10^6 cells/well in 6-well plates using Aim V medium (Gibco™, Invitrogen Corp., San Diego, Calif.) supplemented with 10% heat-inactivated fetal bovine serum (Gibco™) and rested for 19 hours before stimulation.
The ability of BMAP-28 and RI-BMAP-28 to modulate patterns of gene expression induced by endotoxin stimulation was determined in cultured monocytes. Cultured monocytes were stimulated with purified LPS (100 ng/ml) in the presence or absence of different concentrations of antimicrobial peptides for 4 hours. […] Biol. 80:1-12, 2006; Mookherjee et al., J. Immunol. 176: 2455-2464, 2006, and in vivo, Clapp et al., Am. J. Respir. Cri. Care Med. 150: 611-617, 1994. Cells were pelleted and stored at −81° C.
RNA was extracted from the bovine PBMCs with the RNeasy Mini Kit (Qiagen Inc., Ontario, Canada) and the RNase-free DNase (Qiagen Inc.) as per the manufacturer's protocols.
Quantitive real-time PCR (qRT-PCR) was performed using Invitrogen's SuperScript™ III Platinum® two step qRT-PCR kit with SYBR® Green (Invitrogen Corp., San Diego, Calif.) on the Bio-Rad (Hercules, Calif.) iCycler. Briefly, 250 ng total RNA, 8 μL 2×RT reaction mix, 2 μL RT enzyme, and DNase/RNase free water were added to a final volume of 20 μL. The mixture was incubated at 25° C. for 5 minutes, followed by 1 hour incubation at 50° C. and a final incubation of 15 min at 70° C. to produce the cDNA. The PCR reaction was carried out as per the manufacturer's instructions (Invitrogen Corp.) using a mix of Platinum® SYBR® Green qRT-PCR Super-Mix UDG, the template cDNA, […] of the primer mix, and DNase/RNase free water up to 15 μL total volume per well. Cycling conditions were carried out as indicated by the Invitrogen's SuperScript™ III Platinum® two-step qRT-PCR kit with SYBR® Green.

[2] = tested on: LPS-induced TNF-α secretion in bovine PBMCs; assay: HDP inhibition of LPS-induced TNF secretion (capture ELISA); format: cell-based; conditions: 100 ng/ml LPS, various peptide concentrations
Excerpt: As patterns expression are not necessarily predictive of final biological responses we sought to confirm the immunomodulatory capabilities of RI-BMAP-28 through independent analysis. Specifically, the ability of the two isomers to influence secretion of the pro-inflammatory cytokine tumor necrosis factor alpha (TNF-α) following LPS stimulation was examined. Secretion of TNF-α is a well established biomarker of inflammation responses (52).
The secretion of TNF in culture supernatants was quantified with a capture ELISA. Inhibition of LPS-induced TNF secretion was evaluated by adding various concentrations of BMAP-28 (▴) or retro-inverso RI-BMAP-28 (▪) to duplicate PBMCs cultures. The data presented experiments performed in a single animal. While all three animals gave the same trend of responses, the magnitude of these responses is unique for each animal. […]
Untreated cells or cells treated with LPS for 24 h, in the presence or absence of the HDPs, were centrifuged at 1000×g for 5 min followed by 10,000×g for 10 min to obtain cell-free tissue culture supernatant samples. […] TNF-α secretion was monitored with a species-specific capture ELISA (37). […] The concentration of the cytokine was quantified by establishing a standard curve with serial dilutions of the recombinant human TNF-α (eBioscience, San Diego, Calif.) or bovine TNFα (Genetech Inc. San Francisco, Calif.).

bovine erythrocytes = assay: Cytotoxicity (hemolysis) assay; format: cell-based
Procedure: To determine the cytotoxicity of BMAP-28 and RI-BMAP-28 the peptides were incubated overnight at a range of concentrations in the presence of bovine erythrocytes. Consistent with what has been reported by others, BMAP-28 began to exert a cytotoxic effect at concentrations as low as 30 μg/mL. Complete hemolysis was observed by 200 μg/mL of BMAP-28. […] As toxicity currently represents a limiting factor to the systemic administration of HDPs this finding could be of particular significance.
Hemolysis was performed by incubating a 1% (v/v) suspension of bovine erythrocytes in phosphate buffered saline (pH 7.4) with a series of peptide concentrations for 12 hours at 37° C. Samples were then centrifuged and the supernatant absorbance read at 415 nm. Total hemolysis was obtained by resuspending in cells in water rather than PBS. Results are the average from four independent experiments.
Cytotoxicity assays were performed as based upon previously established protocols, Chen et al., Chem. Biol. Drug Des. 67: 162-173, 2006. Briefly, peptide samples were added to 1% bovine erythrocytes in phosphate-buffered saline and reactions were incubated at 37° C. for 18 h in microtiter plates. Appropriate dilutions of the peptides were made fresh prior to each MHC trial in HDP dilution buffer (0.2% BSA, 0.01% acetic acid) and added following addition of the erythrocytes in the appropriate microtiter plate well position. Hemolysis was determined by withdrawing aliquots from the assays, removing unlysed erythrocytes by centrifugation (800×g) and determining which peptide concentrations cause hemoglobin release. Hemoglobin release was determined spectrophotometrically at 570 nm. A sample of 1% erythrocytes with no added peptide served as a non-lysis control. As erythrocytes were incubated in an isotonic medium, no detectable release (<1% of that released upon complete hemolysis) of hemoglobin was observed from this control.

mice = conditions: cited from earlier work
[3] = tested on: Salmonella typhimurium ATCC 14028, Escherichia coli O157:H7, Serratia marcescens ATCC 274, Yersinia enterocolitica O:9 E40 (pYV40), Pseudomonas cepacia ATCC …; assay: Minimal inhibitory concentration, modified broth microdilution; format: cell-based
Excerpt: The present study examined the direct antimicrobial activity of BMAP-28 and RI-BMAP-28 against a series of bacterium which are of medical interest. […] This conclusion is also consistent with the maintained sequence and structure of the RI-BMAP-28. Antimicrobial activity, which is dependent upon non-chiral interactions with bacterial membranes, is anticipated to have the lowest structural requirements for maintenance of activity.
The bacterial strains used for this investigation were Salmonella typhimurium ATCC 14028, Escherichia coli O157:H7, Serratia marcescens ATCC 274, Yersinia enterocolitica O:9 E40 (pYV40), Pseudomonas cepacia ATCC 53795, and Salmonella enterititidis 27655R PT4.
The MIC of the peptides were measured using a modified broth microdilution method, Wu et al., Antimicrob. Agents Chemother. 43: 1274-1276, 1999, in LB medium, whereby the assay was performed in sterile 96-well, round-bottom polypropylene microtitre plates with an inoculum of 5×10^5 bacteria per mL. The plates were incubated at 37° C. for 12 h, solutions spotted onto LB-agar plates and the MIC was taken as the concentration at which no growth was observed.

Substance	activation of PhoPQ-dependent reporter (PhoQ)	reduction of LPS-induced CCL20 expression [1]	reduction of LPS-induced IL-8 expression [1]	reduction of LPS-induced IL-10 expression [1]	suppression of the induction of LPS-induced genes [1]	inhibition of LPS-induced TNF-α secretion [2]	concentration at which a cytotoxic effect begins (bovine erythrocytes) [µg/mL]	concentration giving complete hemolysis (bovine erythrocytes) [µg/mL]	LD50 (mice; administered intravenously) [mg/kg]	LD50 (mice; mice, i.p. administration)	potency as direct antimicrobial agent versus natural isomer ([3]; against a spectrum of bacteria)	MIC values relative to that of the natural peptide ([3]; all strains tested, LB medium, 37° C., 12 h)	cytotoxic effects over the range of peptide concentrations examined (bovine erythrocytes; 1% bovine erythrocytes in PBS, overnight, 37° C.)
NH2-GLRSLGRKILRAWKKYGPIIVPIIRIG-COOH (H-GLRSLGRKILRAWKKYGPIIVPIIRIG-OH) [BMAP-28, natural host defense peptide, a 27 amino acid proteolytic product of the antibacterial peptide BMAP-28 precursor protein]	identical patterns of activation	two-fold reduction	four-fold	two-fold reduction	four to five-fold suppression	dose-dependent inhibition	30	≤ 200	15	approximately 40 mg/kg	–	–	–
D-amino acids of NH2-GIRIIPVIIPGYKKWARLIKRGLSRLG-COOH (H-G[dI][dR][dI][dI][dP][dV][dI][dI][dP]G[dY][dK][dK][dW][dA][dR][dL][dI][dK][dR]G[dL][dS][dR][dL]G-OH; also: retro-inverso) [RI-BMAP-28, retro-inversed form of BMAP-28]	identical patterns of activation	two-fold reduction	four-fold	two-fold reduction	four to five-fold suppression	dose-dependent inhibition	–	–	–	–	2-3 fold	half to a third	did not exhibit any cytotoxic effects
